In patent publication US20090131302A1, “Transient receptor potential vanilloid 1 and uses thereof” (priority 2007, published 2009):
“Also recorded” adds a separate entry of the source.

Tests used:
TRPV1 [1] = biological target: T1, TRPV1 (Rattus norvegicus, UniProt O35433); assay: Neonatal TRPV1 antagonist pre-treatment before P10 colonic acetic acid; sensitivity to colorectal distention at 8 weeks; format: in vivo
T1 construct: endogenous in cells; host or cells: living rats (neonatal and adult); DRG and spinal cord tissue for the expression work
Experimental: (§1) In the first experiment, 3 groups of 10 neonatal rats were used. While Group 1 received SB-366791, 1.3 mg/kg subcutaneously 30 minutes prior to colonic acetic acid administration. Group 2 received vehicle subcutaneously prior to colonic acetic acid administration, and Group 3 received vehicle prior to colonic saline administration. In the second experiment, 3 groups of 10 neonatal rats were used. All rats received a drug or vehicle subcutaneously 24 hours and 30 minutes prior to colonic acetic acid administration. Group 4 received SB-366791, 2.6 mg/kg, Group 5 received I-RTX, 2 mg/kg, and Group 6 received vehicle. For both experiments, at 8 weeks of age, EMG recordings and abdominal withdrawal reflex grades were simultaneously obtained in response to graded colorectal distention. To test the effect of TRPV1 inhibitors on adults, 2 groups of 10 rats were used: on post-natal day 10, Group 7 received colonic acetic acid, Group 8 received colonic saline. At 7 weeks of age, Groups 7 and 8 were split: half of each group received SB-366791, 1.3 mg/kg, and half vehicle, subcutaneously 30 minutes prior to colorectal distention. After one week of period, vehicle and drug groups were crossed-over and sensitivity to colorectal distention was measured again.
Ten days old rat pups received TRPV1 antagonist or vehicle subcutaneously 30 minutes prior to colon acetic acid infusion and were tested for sensitivity to colorectal distention at 8 weeks of age.
Thus, antagonism of the TRPV1 prior to neonatal administration of acetic acid attenuated the development of sensitivity to colorectal distention.

TRPV1 [2] = biological target: TRPV1 (Homo sapiens, UniProt Q8NER1); conditions: cited from earlier work
TRPV1 [3] = conditions: cited from earlier work
p38 = conditions: models of inflammation and neuropathy; cited from earlier work
TRPV1 [4] = biological target: T1, TRPV1; assay: TRPV1 antagonism in adult rats neonatally treated with acetic acid or saline; graded colorectal distention; format: in vivo; conditions: 1.3 mg/kg 30 minutes prior to CRD
Experimental: as §1
AWR scores of drug and vehicle treated rats as adults within each neonatal treatment group (P10 acetic acid or P10 saline) were compared at each distention pressure by Wilcoxon signed rank test.

TRPV1 [5] = conditions: in vivo; cited from earlier work
[6] = test system: voltage-gated Ca++ currents or the hyperpolarization activated current in rat DRG neurons; conditions: at 1 mM; cited from earlier work
[7] = test system: 50 receptors of various types; parameters: dose or concentration left out as unconfirmed; conditions: cited from earlier work
[8] = test system: AMPA or NMDA mediated hippocampal synaptic transmission; conditions: cited from earlier work
MEK = conditions: cited from earlier work
TRPV1 [9] = biological target: T1, TRPV1; assay: Neonatal colonic capsaicin infusion; sensitivity to colorectal distention at 7 weeks; format: in vivo; conditions: 0.2 ml of 50 mg/ml into colon at P10, tested at 7 weeks, 20, 40, 60, 80 mm Hg, vs unmanipulated and vehicle
Experimental: To treat neonatal rats with capsaicin, ten day old rat pups received an infusion of 0.2 mls of 50 mg/ml capsaicin or 0.2 mls vehicle: 10% ethanol, 10% Tween 20, 80% saline or were left unmanipulated. Visceral sensitivity and inflammatory parameters were measured in these rats between 8 and 12 weeks of age. […] After 4 weeks, rats were tested for sensitivity to colorectal distention.
Visceral hypersensitivity was measured by grading the response of rats to colorectal distention as previously described.^11 Briefly, under mild sedation with 1% Brevital (Eli Lily & Co Indianapolis, Ind.) 25 mg/kg i.p.), a flexible balloon (5 cm) constructed from a surgical glove finger attached to a tygon tubing was inserted 8 cm into the descending colon and rectum via the anus and held in place by taping the tubing to the tail. Rats were placed in small Lucite cubicles (20×8×8 cm) (Bioengineering Department, UTMB) and were allowed to adapt for 30 minutes. […] Pressure was measured using a sphygmomanometer connected to a pressure transducer. […] Behavioral responses to colorectal distention were measured by visual observation of the abdominal withdrawal reflex by blinded observer and the assignment of an AWR score as follows: 1=Normal behavior without response 2=Contraction of abdominal muscles; 3=Lifting of abdominal wall; 4=Body arching and lifting of pelvic structures. […]

p38 and ERK = conditions: peripheral administration; cited from earlier work
TRPV1 [10] = biological target: T2, TRPV1 (Mus musculus, UniProt Q704Y3); conditions: cited from earlier work
T2 construct: host or cells: colon and jejunal afferent fibre preparations

calcium channels = conditions: at high concentrations; cited from earlier work
[11] = in vivo; cited from earlier work
[12] = 1.3 mg/kg s.c. 30 minutes prior to P10 acetic acid, tested at 8 weeks, 40, 60 and 80 mm Hg, vs vehicle

T1 sequence (O35433 whole entry): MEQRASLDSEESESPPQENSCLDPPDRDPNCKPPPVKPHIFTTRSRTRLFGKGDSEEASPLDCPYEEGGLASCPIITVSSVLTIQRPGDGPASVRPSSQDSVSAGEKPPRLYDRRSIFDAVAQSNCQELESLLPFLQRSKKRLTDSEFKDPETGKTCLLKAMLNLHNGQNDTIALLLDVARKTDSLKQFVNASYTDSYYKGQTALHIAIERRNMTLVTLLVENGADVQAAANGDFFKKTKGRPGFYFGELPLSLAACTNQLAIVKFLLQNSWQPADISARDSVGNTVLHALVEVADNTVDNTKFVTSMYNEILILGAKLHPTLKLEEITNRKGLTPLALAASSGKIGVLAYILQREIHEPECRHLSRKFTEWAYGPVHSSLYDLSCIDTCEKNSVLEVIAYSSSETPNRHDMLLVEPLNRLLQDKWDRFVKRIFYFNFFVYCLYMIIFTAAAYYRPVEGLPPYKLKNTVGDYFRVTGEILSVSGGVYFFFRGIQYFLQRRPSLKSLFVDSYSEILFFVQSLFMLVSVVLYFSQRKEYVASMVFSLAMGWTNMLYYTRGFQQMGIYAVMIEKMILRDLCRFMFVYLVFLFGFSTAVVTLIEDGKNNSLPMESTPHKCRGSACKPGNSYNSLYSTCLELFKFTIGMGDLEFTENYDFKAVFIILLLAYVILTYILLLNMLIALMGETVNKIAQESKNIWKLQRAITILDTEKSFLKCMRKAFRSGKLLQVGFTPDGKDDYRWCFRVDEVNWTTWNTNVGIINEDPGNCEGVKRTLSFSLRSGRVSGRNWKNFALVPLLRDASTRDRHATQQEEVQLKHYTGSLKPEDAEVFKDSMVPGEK
Chain of TRPV1 (Homo sapiens, UniProt Q8NER1) (Q8NER1 whole entry, species assumed): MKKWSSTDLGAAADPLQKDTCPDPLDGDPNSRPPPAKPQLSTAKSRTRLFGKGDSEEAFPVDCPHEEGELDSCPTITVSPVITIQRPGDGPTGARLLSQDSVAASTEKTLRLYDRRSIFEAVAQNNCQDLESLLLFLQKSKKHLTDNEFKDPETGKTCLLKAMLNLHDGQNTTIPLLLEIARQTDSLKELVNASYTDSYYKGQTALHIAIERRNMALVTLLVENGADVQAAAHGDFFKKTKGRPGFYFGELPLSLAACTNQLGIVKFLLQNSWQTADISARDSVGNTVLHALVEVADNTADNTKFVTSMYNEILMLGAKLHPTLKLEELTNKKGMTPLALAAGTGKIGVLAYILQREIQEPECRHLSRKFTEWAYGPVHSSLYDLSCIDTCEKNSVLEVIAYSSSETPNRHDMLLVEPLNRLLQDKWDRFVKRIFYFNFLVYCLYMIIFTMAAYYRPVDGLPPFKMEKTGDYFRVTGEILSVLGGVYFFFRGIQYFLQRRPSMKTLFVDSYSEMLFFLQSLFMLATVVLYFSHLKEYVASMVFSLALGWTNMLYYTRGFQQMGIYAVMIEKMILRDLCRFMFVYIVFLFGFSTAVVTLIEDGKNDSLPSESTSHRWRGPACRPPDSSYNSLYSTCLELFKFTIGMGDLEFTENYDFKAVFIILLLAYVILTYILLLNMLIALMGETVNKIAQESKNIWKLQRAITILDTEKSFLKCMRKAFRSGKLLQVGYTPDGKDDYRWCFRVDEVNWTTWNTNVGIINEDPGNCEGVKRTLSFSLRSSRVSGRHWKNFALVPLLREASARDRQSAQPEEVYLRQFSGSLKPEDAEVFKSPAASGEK
T2 sequence (Q704Y3 whole entry): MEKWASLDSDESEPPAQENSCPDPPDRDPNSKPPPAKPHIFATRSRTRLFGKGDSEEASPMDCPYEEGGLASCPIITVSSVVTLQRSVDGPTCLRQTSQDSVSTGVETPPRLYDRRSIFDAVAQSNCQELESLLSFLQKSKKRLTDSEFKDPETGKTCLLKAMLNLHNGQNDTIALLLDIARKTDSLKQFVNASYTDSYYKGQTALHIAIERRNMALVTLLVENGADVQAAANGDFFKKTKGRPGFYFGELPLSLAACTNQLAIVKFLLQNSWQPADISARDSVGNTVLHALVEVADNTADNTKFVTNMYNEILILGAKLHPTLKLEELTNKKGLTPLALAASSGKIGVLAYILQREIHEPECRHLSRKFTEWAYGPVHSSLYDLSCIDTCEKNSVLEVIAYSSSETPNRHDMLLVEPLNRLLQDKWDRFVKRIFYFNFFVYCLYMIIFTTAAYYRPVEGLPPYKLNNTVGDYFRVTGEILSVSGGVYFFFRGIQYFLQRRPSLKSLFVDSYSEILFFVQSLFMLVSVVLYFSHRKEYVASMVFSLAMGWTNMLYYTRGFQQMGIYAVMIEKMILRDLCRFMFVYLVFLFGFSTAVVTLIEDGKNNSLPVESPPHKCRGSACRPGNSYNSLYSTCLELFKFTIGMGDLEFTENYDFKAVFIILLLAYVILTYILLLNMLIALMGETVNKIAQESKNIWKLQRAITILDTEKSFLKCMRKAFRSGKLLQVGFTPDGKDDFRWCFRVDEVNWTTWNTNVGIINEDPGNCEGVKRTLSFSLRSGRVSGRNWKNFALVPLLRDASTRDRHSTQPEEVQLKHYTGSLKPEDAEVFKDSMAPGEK

## C=C(C)[C@]12C[C@@H](C)[C@@]34O[C@](Cc5ccccc5)(O[C@@H]1[C@@H]3C=C(COC(=O)Cc1cc(I)c(O)c(OC)c1)C[C@]1(O)C(=O)C(C)=C[C@@H]41)O2 [I-RTX, 5′Iodoresiniferatoxin]
TRPV1 [1]; 2 mg/kg s.c. 24 hours and 30 minutes prior to P10 acetic acid, 8 weeks, 10, 20 and 40 mm Hg
  sensitivity to colorectal distention by AWR grade: reduced sensitivity
TRPV1 [1]; 2 mg/kg s.c. 24 hours and 30 minutes prior to P10 acetic acid, 8 weeks, 10, 20 and 40 mm Hg, listed as 1-RTX
  sensitivity to colorectal distention by AWR grade: significant decreased sensitivity
TRPV1 [1]; 2 mg/kg s.c. 24 hours and 30 minutes prior to P10 acetic acid, 8 weeks, 20, 40, 60 and 80 mm Hg
  sensitivity to colorectal distention by EMG: reduced sensitivity
TRPV1 [1]; 2 mg/kg s.c. 24 hours and 30 minutes prior to P10 acetic acid, 8 weeks, 20, 40, 60 and 80 mm Hg, listed as 1-RTX
  sensitivity to colorectal distention by EMG: significant decreased sensitivity
TRPV1 [2]
  potency and selectivity compared with capsezapine: more potent and selective antagonists
TRPV1 [3]
  blocking TRPV1-mediated effects in several animal models in vivo: effective in blocking TRPV1-mediated effects

## C[S+]([O-])c1ccc(-c2nc(-c3ccncc3)c(-c3ccc(F)cc3)[nH]2)cc1 (stereo not drawn) [SB-203580]
p38
  development of behavioral hypersensitivity: blocks the development of behavioral hypersensitivity

## COc1cccc(NC(=O)C=Cc2ccc(Cl)cc2)c1 [SB-366791, N-(3-Methoxyphenyl)-4-chlorocinnamide]
TRPV1 [1]; [12]
  EMG activity in response to colorectal distention: significantly less
  sensitivity to colorectal distention by AWR grade: significant decreases in sensitivity to colorectal distention
TRPV1 [1]; 2.6 mg/kg s.c. 24 hours and 30 minutes prior to P10 acetic acid, 8 weeks, 10, 20, 40 and 60 mm Hg
  sensitivity to colorectal distention by AWR grade: reduced sensitivity; also recorded: significantly decreased sensitivity
TRPV1 [1]; 2.6 mg/kg s.c. 24 hours and 30 minutes prior to P10 acetic acid, 8 weeks, 20, 40 and 60 mm Hg
  sensitivity to colorectal distention by EMG: reduced sensitivity; also recorded: significantly decreased sensitivity
TRPV1 [4]; 10-80 mm Hg
  AWR response to colorectal distention, P10 saline treated adult rats: no significant effect
TRPV1 [4]; 10 and 80 mm Hg
  AWR response to colorectal distention, P10 acetic acid treated adult rats: No significant differences
TRPV1 [4]; 20 mm Hg
  AWR response to colorectal distention, P10 acetic acid treated adult rats: trend towards significance
TRPV1 [4]; 40 and 60 mm Hg, vs vehicle
  AWR response to colorectal distention, P10 acetic acid treated adult rats: reduced sensitivity to CRD
TRPV1 [4]; 40 and 60 mm Hg, vs vehicle, listed as SB-366,791
  AWR response to colorectal distention, P10 acetic acid treated adult rats: significant decline
TRPV1 [5]
  capsaicin effects on thermoregulation: block capsaicin effects on thermoregulation
TRPV1 [2]
  acid-mediated activation: blocks acid-mediated activation
  potency and selectivity compared with capsezapine: more potent and selective antagonists
TRPV1 [2]; competitive antagonist of capsaicin
  Ki: 18 nM
[6]
  effect on hyperpolarization activated current: little or no effect
  effect on voltage-gated Ca++ currents: little or no effect
[7]
  effect in in vitro binding assays against 50 receptors of various types: little or no effect
[8]
  effects on AMPA or NMDA mediated hippocampal synaptic transmission: no effects

## N#CC(=C(/N)Sc1ccccc1N)/C(C#N)=C(\N)Sc1ccccc1N [U0126]
MEK; in vivo
  epinephrine induced mechanical hypersensitivity: reduces epinephrine induced mechanical hypersensitivity
MEK; models of inflammation and neuropathic pain
  thermal and mechanical hypersensitivity: attenuates thermal and mechanical hypersensitivity

## COc1cc(CNC(=O)CCCC/C=C/C(C)C)ccc1O [capsaicin]
TRPV1 [9]
  sensitivity to colorectal distention: increased sensitivity
TRPV1 [9]; listed as CAP
  sensitivity to colorectal distention: significantly more sensitive to colorectal distention
p38 and ERK
  p38 and ERK activation in dorsal root ganglia neurons: activates p38 and ERK

## Oc1cc2c(cc1O)CN(C(=S)NCCc1ccc(Cl)cc1)CCC2 [capsazepine]
TRPV1 [10]
  colon afferent fiber responses to stretch: inhibited
  jejunal afferent responses to acid: inhibited
Calcium channels
  calcium channel block: blocks calcium channels at high concentrations
[11]
  pharmacokinetic properties: poor pharmacokinetic properties
